The values that follow are results of earlier work, collected in publication PMC9569971, “New Oxazolo[5,4-d]pyrimidines as Potential Anticancer Agents: Their Design, Synthesis, and In Vitro Biological Activity Research” (International Journal of Molecular Sciences, 2022).

Like-named read-outs stand apart in the source and are kept apart here.

For orientation: IC50 means the concentration that gives 50% inhibition.

The subject of series [1] is A549. The note with it: cited from earlier work.
Series [2] has as its system HT29. The note with it: ref 70; cited from earlier work.

In the case of `COc1cc2nccc(Oc3ccc(NC(=O)NC4CC4)c(Cl)c3)c2cc1C(N)=O` [Lenvatinib], the IC50 result is “almost no effect” in series [1] (listed as lenvatinib), “No effect ^f” in series [1] (ref 69) and 431 µM in series [2].
